Laboratory results as given in US20100285959A1, “HERBICIDAL MIXTURES” (priority 2006, published 2010).

How the values were obtained:
wild oat (AVEFA) = assay: Test 4 field trial, postemergence; assay type: in vivo, Avena fatua; set-up: scale not given here
Method: (§1) A field trial was conducted to evaluate the effects of mixtures of Compound 2 with commercial herbicides on spring wheat (TRZAS, Triticum aestivum L.) and several weed species. Wheat seeds (cv. ‘AC Intrepid’) were planted in late spring season, 3.8 cm deep in a loam soil having 2.7% organic matter and a pH of 7. Plots were 6 m long by 2.5 m wide. The field was managed using no-till practices. The plots were arranged in a randomized complete block design with each treatment being replicated four times. Treatments were applied postemergence 25 days after planting using a backpack sprayer delivering a spray volume of 55 L/ha using a pressure of 276 kPa. […] Compound 2 and clodinafop treatments, alone and in combination, also included a surfactant. Weed species present in the experimental plots in sufficient quantity to be evaluated included wild oat (AVEFA, Avena fatua L.), common lambsquarters (CHEAL, Chenopodium album L.), kochia (KCHSC, Kochia scoparia (L.) Schrad.), wild buckwheat (POLCO, Polygonum convolvulus L.), Russian thistle (SASKR, Salsola kali L. ssp. ruthenica (Iljin) Soo), and field pennycress (THLAR, Thlaspi arvense L.). […] Common lambsquarters was evaluated only at 14 days after application. […] Results are the means of the four replicates.

[1] = system: Pennsylvania smartweed (POLPY); assay: Test 25 field trial, postemergence, growth as percent of control; assay type: in vivo, Polygonum pensylvanicum; settings: 14 DAA
Description: (§2) Corn seeds (hybrid ‘Pioneer 31G96 RR’) were planted in mid spring season, 3.8 cm deep in a clay loam soil having 2% organic matter and a pH of 6.6. Plots were 6.1 m long by 3.0 m wide with rows spaced 76 cm apart. Seeds were spaced 15 cm apart within the rows. The field was managed using conventional tillage practices. […] Giant ragweed and Pennsylvania smartweed could only be evaluated 14 days after application. […] Results are the means of the three replicates. This growth inhibition data was converted to results in the form of “plant growth as a percent of control plant growth” using the calculation “100 minus growth inhibition”.
(§3) When this form of Colby's Equation is used, if the observed effects on weeds are less than the expected values, the mixture is synergistic.

[2] = system: ivyleaf morningglory (IPOHE); assay: Test 26 field trial, postemergence; assay type: in vivo, Ipomoea hederacea; set-up: scale not given here
Description: (§4) Corn seeds (hybrid ‘Pioneer 31G96’) were planted in mid spring season, 3.8 cm deep in a silt loam soil having 2% organic matter and a pH of 6.6. Plots were 6.1 m long by 3.0 m wide with rows spaced 76 cm apart. Seeds were spaced 15 cm apart within the rows. The field was managed using conventional tillage practices. […] All treatments also included a surfactant. […] Some of the weed species could not be evaluated at every timing. […] Results are the means of the three replicates.

[3] = system: Pennsylvania smartweed (POLPY); assay: Test 26 field trial, postemergence; assay type: in vivo, Polygonum pensylvanicum
Description: as §4

wild buckwheat (POLCO) [4] = assay: Test 4 field trial, postemergence; assay type: in vivo, Polygonum convolvulus
Method: as §1

wild buckwheat (POLCO) [5] = assay: Test 24 growth chamber, postemergence; assay type: in vivo, Polygonum convolvulus; settings: 17 DAA
Method: (§5) Plants were treated postemergence at the 2-4 leaf growth stage, and each treatment was replicated three times. […] Plants were watered as needed. […] Results for barley and wheat are the means across varieties of the three replicates, and results for the weeds are the means of the three replicates.

common ragweed (AMBEL) = assay: Test 25 field trial, postemergence, growth as percent of control; assay type: in vivo, Ambrosia artemisiifolia
Description: as §2, §3

winter barley (HORVW) = assay: Test 24 growth chamber, postemergence; assay type: in vivo, Hordeum vulgare; settings: 17 DAA
Method: as §5

velvetleaf (ABUTH) [6] = assay: Test 15 greenhouse, postemergence; settings: 12 DAA
velvetleaf (ABUTH) [7] = assay: Test 18 greenhouse, post- and preemergence; settings: 15 DAA
[8] = 14 DAA, Cpd 2 30 g a.i./ha alone or with clodinafop 56 or fenoxaprop 90
[9] = 14 DAA, Cpd 2 60 g a.i./ha alone or with clodinafop 56 or fenoxaprop 90
[10] = 35 DAA, Cpd 2 30 g a.i./ha alone or with clodinafop 56 or fenoxaprop 90
[11] = 35 DAA, Cpd 2 60 g a.i./ha alone or with clodinafop 56 or fenoxaprop 90

In the case of `COC(=O)c1nc(C2CC2)nc(N)c1Cl` [Compound 2, methyl 6-amino-5-chloro-2-cyclopropyl-4-pyrimidinecarboxylate], the “AVEFA Obs” value (wild oat (AVEFA); [8]) is reported as 0, the “AVEFA Obs” value (wild oat (AVEFA); [9]) is reported as 0 and the “AVEFA Obs” value (wild oat (AVEFA); [10]) is reported as 0. The “AVEFA Obs” value (wild oat (AVEFA); [11]) was 0, the “AVEFA Obs” value (wild oat (AVEFA); 55 DAA, Cpd 2 30 g a.i./ha alone or with clodinafop 56 or fenoxaprop 90) was 0 and the “AVEFA Obs” value (wild oat (AVEFA); 55 DAA, Cpd 2 60 g a.i./ha alone or with clodinafop 56 or fenoxaprop 90) was 0. For the same molecule, the “POLPY Obs (percent of control)” value ([1]; Cpd 2 15 g a.i./ha) was 95%, the “POLPY Obs (percent of control)” value ([1]; Cpd 2 30 g a.i./ha) was 55% and the “POLPY Obs (percent of control)” value ([1]; Cpd 2 45 g a.i./ha) was 65%. The “IPOHE Obs” value ([2]; 14 DAA, 30 g a.i./ha) was 90, the “IPOHE Obs” value ([2]; 14 DAA, 45 g a.i./ha) was 67 and the “IPOHE Obs” value ([2]; 14 DAA, 60 g a.i./ha) was 98. For the same molecule, the “IPOHE Obs” value ([2]; 28 DAA, 30 g a.i./ha) was 95, the “IPOHE Obs” value ([2]; 28 DAA, 45 g a.i./ha) was 99 and the “IPOHE Obs” value ([2]; 28 DAA, 60 g a.i./ha) was 98. The “IPOHE Obs” value ([2]; 56 DAA, 30 g a.i./ha) was 88, the “IPOHE Obs” value ([2]; 56 DAA, 45 g a.i./ha) was 96 and the “IPOHE Obs” value ([2]; 56 DAA, 60 g a.i./ha) was 98. The “POLPY Obs” value ([3]; 14 DAA, 60 g a.i./ha) was 100, the “POLPY Obs” value ([3]; 28 DAA, 30 g a.i./ha) was 20 and the “POLPY Obs” value ([3]; 28 DAA, 45 g a.i./ha) was 62. For the same molecule, the “POLPY Obs” value ([3]; 28 DAA, 60 g a.i./ha) was 75, the “POLCO Obs” value (wild buckwheat (POLCO) [4]; [8]) was 61 and the “POLCO Obs” value (wild buckwheat (POLCO) [4]; [9]) was 63. The “POLCO Obs” value (wild buckwheat (POLCO) [4]; [10]) was 51, the “POLCO Obs” value (wild buckwheat (POLCO) [4]; [11]) was 55 and the “POLCO Obs (scale 0 to 100)” value (wild buckwheat (POLCO) [5]; Cpd 2 4 g a.i./ha) was 55. For the same molecule, the “POLCO Obs (scale 0 to 100)” value (wild buckwheat (POLCO) [5]; Cpd 2 8 g a.i./ha) was 60, the “POLCO Obs (scale 0 to 100)” value (wild buckwheat (POLCO) [5]; Cpd 2 16 g a.i./ha) was 70 and the “AMBEL Obs (percent of control)” value (common ragweed (AMBEL); Cpd 2 15 g a.i./ha, 14 DAA) was 20%. For the same molecule, the “AMBEL Obs (percent of control)” value (common ragweed (AMBEL); Cpd 2 15 g a.i./ha, 28 DAA) was 16%, the “AMBEL Obs (percent of control)” value (common ragweed (AMBEL); Cpd 2 15 g a.i./ha, 56 DAA) was 0% and the “AMBEL Obs (percent of control)” value (common ragweed (AMBEL); Cpd 2 30 g a.i./ha, 14 DAA) was 22%. The “AMBEL Obs (percent of control)” value (common ragweed (AMBEL); Cpd 2 30 g a.i./ha, 28 DAA) was 12%, the “AMBEL Obs (percent of control)” value (common ragweed (AMBEL); Cpd 2 30 g a.i./ha, 56 DAA) was 0% and the “AMBEL Obs (percent of control)” value (common ragweed (AMBEL); Cpd 2 45 g a.i./ha, 14 DAA) was 12%. For the same molecule, the “AMBEL Obs (percent of control)” value (common ragweed (AMBEL); Cpd 2 45 g a.i./ha, 28 DAA) was 8%, the “AMBEL Obs (percent of control)” value (common ragweed (AMBEL); Cpd 2 45 g a.i./ha, 56 DAA) was 0% and the “HORVW Obs (scale 0 to 100)” value (winter barley (HORVW); Cpd 2 4 g a.i./ha) was 19. For the same molecule, the “HORVW Obs (scale 0 to 100)” value (winter barley (HORVW); Cpd 2 8 g a.i./ha) was 28, the “HORVW Obs (scale 0 to 100)” value (winter barley (HORVW); Cpd 2 16 g a.i./ha) was 37 and the “Obs response, scale 0 to 100” value (velvetleaf (ABUTH) [6]; 15 g a.i./ha) was 31. The “Obs response, scale 0 to 100” value (velvetleaf (ABUTH) [6]; 30 g a.i./ha) was 38, the “Obs response, scale 0 to 100” value (velvetleaf (ABUTH) [6]; 45 g a.i./ha) was 61 and the “Postemergence ABUTH Obs” value (velvetleaf (ABUTH) [7]; alone at 15 g a.i./ha) was 39. The “Preemergence ABUTH Obs” value (velvetleaf (ABUTH) [7]; alone at 15 g a.i./ha) was 16, the “Postemergence ABUTH Obs” value (velvetleaf (ABUTH) [7]; alone at 30 g a.i./ha) was 58 and the “Preemergence ABUTH Obs” value (velvetleaf (ABUTH) [7]; alone at 30 g a.i./ha) was 26. For the same molecule, the “Postemergence ABUTH Obs” value (velvetleaf (ABUTH) [7]; alone at 45 g a.i./ha) was 67 and the “Preemergence ABUTH Obs” value (velvetleaf (ABUTH) [7]; alone at 45 g a.i./ha) was 28.
